Experimental data from US12643907B2 (priority 2020, dated 2026).
“Also recorded” adds a separate entry of the source.

How the values were obtained:
MOR = biological target: T1, MOR (Mus musculus, UniProt P42866); test: Mouse 55° C. warm-water tail withdrawal (WWTW) assay, antagonism of the MOR agonist morphine; assay type: in vivo; settings: for antagonism of morphine-induced antinociception at 24 h: 24 h after a 30 mg/kg s.c. treatment
T1 construct: from tissue; host or cells: living mice (in vivo)
T1 sequence (P42866 whole entry): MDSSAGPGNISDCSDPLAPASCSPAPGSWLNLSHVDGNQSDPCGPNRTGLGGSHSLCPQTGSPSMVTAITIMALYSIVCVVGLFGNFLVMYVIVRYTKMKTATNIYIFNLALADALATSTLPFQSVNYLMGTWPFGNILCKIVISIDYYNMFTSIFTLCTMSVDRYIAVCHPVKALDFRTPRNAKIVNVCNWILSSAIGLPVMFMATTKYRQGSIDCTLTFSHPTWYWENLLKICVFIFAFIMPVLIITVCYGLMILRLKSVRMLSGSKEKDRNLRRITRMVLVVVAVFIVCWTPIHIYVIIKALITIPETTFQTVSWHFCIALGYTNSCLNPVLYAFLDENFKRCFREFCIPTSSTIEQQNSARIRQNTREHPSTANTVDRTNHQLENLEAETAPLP

mice = test: Mouse 55° C. tail-withdrawal assay, antinociception of the compound itself (opioid agonist effects); assay type: in vivo; settings: s.c.
[1] = naloxone; cited from earlier work

C=CCN1CC[C@]23c4c5ccc(O)c4O[C@H]2[C@H](N(C)CCS(=O)(=O)F)CC[C@@]3(O)C1C5 [TJ-171]
duration of MOR antagonism (MOR; 30 mg/kg, s.c.): at least 24 hours
antagonism of morphine-induced antinociception at 24 h (MOR): fully antagonized
antinociception of compound alone (opioid agonist effects) (mice; doses up to 30 mg/kg): did not display antinociception; also recorded: no antinociception

C=CCN1CCC23c4c5ccc(O)c4OC2C(N(C)CCS(=O)(=O)F)CCC3(O)C1C5 (racemic) [TJ-345]
antagonism of morphine-induced antinociception at 24 h (MOR; 30 mg/kg): only partial blockade; also recorded: only partially antagonized
duration of blockade of opiate analgesia (MOR; doses as low as 3 nmol (i.c.v) or 30 mg/kg (s.c.)): 24 to 48 h
doses that antagonized morphine antinociception (MOR; i.c.v. pretreatment, not 0.3 nmol): 3 to 300 nmol
doses that antagonized morphine antinociception (MOR; s.c. pretreatment, not 1 mg/kg): 3 to 60 mg/kg
weak transient antinociception of compound alone (mice; >30 nmol i.c.v. or 60 mg/kg, first 40 min after treatment): ~15%

C=CCN1CC[C@]23c4c5ccc(O)c4O[C@H]2C(=O)CC[C@@]3(O)[C@H]1C5 [naloxone]
half-life [1]: 2 h
